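In this assay, cells in 96-well plates receive the compound at five concentrations for 48 hours. Endpoints are linearly interpolated between the surrounding concentrations. At the TGI there is no net growth.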
Tests used:
Experiment in all cases: NCI anticancer screen, dose series, 48 h
SW-620 colon = tested on: SW-620 colon
ACHN renal = tested on: ACHN renal
NCI-H226 lung = tested on: NCI-H226 lung
SK-OV-3 ovarian = tested on: SK-OV-3 ovarian
HCT-116 colon = tested on: HCT-116 colon
OVCAR-8 ovarian = tested on: OVCAR-8 ovarian
UACC-62 melanoma = tested on: UACC-62 melanoma
CCRF-CEM leukemia = tested on: CCRF-CEM leukemia
NCI-H23 lung = tested on: NCI-H23 lung
OVCAR-4 ovarian = tested on: OVCAR-4 ovarian
XF 498 CNS = tested on: XF 498 CNS
LXFL 529 NSCLC = tested on: LXFL 529 NSCLC
SNB-75 CNS = tested on: SNB-75 CNS
DMS 114 small cell lung = tested on: DMS 114 small cell lung
OVCAR-5 ovarian = tested on: OVCAR-5 ovarian
HT29 colon = tested on: HT29 colon
UO-31 renal = tested on: UO-31 renal
A549 NSCLC = tested on: A549 NSCLC
KM20L2 colon = tested on: KM20L2 colon
RXF-631 renal = tested on: RXF-631 renal
SN12C renal = tested on: SN12C renal
SF-539 CNS = tested on: SF-539 CNS
RPMI-8226 leukemia = tested on: RPMI-8226 leukemia
COLO 205 colon = tested on: COLO 205 colon
UACC-257 melanoma = tested on: UACC-257 melanoma
DMS 273 small cell lung = tested on: DMS 273 small cell lung
SNB-19 CNS = tested on: SNB-19 CNS
HOP-18 NSCLC = tested on: HOP-18 NSCLC
M19-MEL melanoma = tested on: M19-MEL melanoma
IGROV1 ovarian = tested on: IGROV1 ovarian
SK-MEL-2 melanoma = tested on: SK-MEL-2 melanoma
SF-268 CNS = tested on: SF-268 CNS
MOLT-4 leukemia = tested on: MOLT-4 leukemia
HL-60(TB) leukemia = tested on: HL-60(TB) leukemia
K-562 leukemia = tested on: K-562 leukemia
HOP-92 NSCLC = tested on: HOP-92 NSCLC
DLD-1 colon = tested on: DLD-1 colon
M14 melanoma = tested on: M14 melanoma
786-0 renal = tested on: 786-0 renal
CAKI-1 renal = tested on: CAKI-1 renal
HOP-62 NSCLC = tested on: HOP-62 NSCLC
TK-10 renal = tested on: TK-10 renal
LOX IMVI melanoma = tested on: LOX IMVI melanoma
KM12 colon = tested on: KM12 colon
SK-MEL-5 melanoma = tested on: SK-MEL-5 melanoma
SK-MEL-28 melanoma = tested on: SK-MEL-28 melanoma
SF-295 CNS = tested on: SF-295 CNS
HCC-2998 colon = tested on: HCC-2998 colon
U251 CNS = tested on: U251 CNS
RXF 393 renal = tested on: RXF 393 renal
HCT-15 colon = tested on: HCT-15 colon
SR leukemia = tested on: SR leukemia
EKVX NSCLC = tested on: EKVX NSCLC
NCI-H460 lung = tested on: NCI-H460 lung
OVCAR-3 ovarian = tested on: OVCAR-3 ovarian
SNB-78 CNS = tested on: SNB-78 CNS
A498 renal = tested on: A498 renal
MALME-3M melanoma = tested on: MALME-3M melanoma
NCI-H522 lung = tested on: NCI-H522 lung

## N#C/C(=C\c1c(Cl)cccc1Cl)c1ccccc1
SW-620 colon
  TGI: > 100 µM
ACHN renal
  TGI: > 100 µM
NCI-H226 lung
  TGI: > 48.9 µM
SK-OV-3 ovarian
  TGI: > 65.9 µM
HCT-116 colon
  TGI: > 100 µM
OVCAR-8 ovarian
  TGI: > 100 µM
UACC-62 melanoma
  TGI: > 31.3 µM
CCRF-CEM leukemia
  TGI: 11.9 µM
NCI-H23 lung
  TGI: > 87.9 µM
OVCAR-4 ovarian
  TGI: > 96.3 µM
XF 498 CNS
  TGI: 33.4 µM
LXFL 529 NSCLC
  TGI: > 100 µM
SNB-75 CNS
  TGI: 7.76 µM
DMS 114 small cell lung
  TGI: > 39.5 µM
OVCAR-5 ovarian
  TGI: > 100 µM
HT29 colon
  TGI: > 59.5 µM
UO-31 renal
  TGI: > 100 µM
A549 NSCLC
  TGI: > 100 µM
KM20L2 colon
  TGI: 21.8 µM
RXF-631 renal
  TGI: > 100 µM
SN12C renal
  TGI: > 69.5 µM
SF-539 CNS
  TGI: 9.53 µM
RPMI-8226 leukemia
  TGI: > 100 µM
COLO 205 colon
  TGI: 7.16 µM
UACC-257 melanoma
  TGI: > 100 µM
DMS 273 small cell lung
  TGI: 11.8 µM
SNB-19 CNS
  TGI: 78.5 µM
HOP-18 NSCLC
  TGI: > 100 µM
M19-MEL melanoma
  TGI: > 100 µM
IGROV1 ovarian
  TGI: > 100 µM
SK-MEL-2 melanoma
  TGI: 39.3 µM
SF-268 CNS
  TGI: > 100 µM
MOLT-4 leukemia
  TGI: > 66.5 µM
HL-60(TB) leukemia
  TGI: 15.9 µM
K-562 leukemia
  TGI: > 100 µM
HOP-92 NSCLC
  TGI: 41.1 µM
DLD-1 colon
  TGI: > 100 µM
M14 melanoma
  TGI: > 76.3 µM
786-0 renal
  TGI: > 56.6 µM
CAKI-1 renal
  TGI: > 100 µM
HOP-62 NSCLC
  TGI: > 31.4 µM
TK-10 renal
  TGI: > 100 µM
LOX IMVI melanoma
  TGI: > 68.5 µM
KM12 colon
  TGI: > 100 µM
SK-MEL-5 melanoma
  TGI: > 46.8 µM
SK-MEL-28 melanoma
  TGI: > 100 µM
SF-295 CNS
  TGI: 65.5 µM
HCC-2998 colon
  TGI: > 100 µM
U251 CNS
  TGI: > 90.1 µM
RXF 393 renal
  TGI: 25.7 µM
HCT-15 colon
  TGI: > 100 µM
SR leukemia
  TGI: 6.04 µM
EKVX NSCLC
  TGI: > 100 µM
NCI-H460 lung
  TGI: > 58.5 µM
OVCAR-3 ovarian
  TGI: 19.9 µM
SNB-78 CNS
  TGI: > 66.8 µM
A498 renal
  TGI: 25.4 µM
MALME-3M melanoma
  TGI: 56 µM
NCI-H522 lung
  TGI: 40.9 µM
